For series [1] the following is noted: cited from earlier work.
In series [2] the test system is Tcf4+/− mice. As to the kind of experiment: Fear conditioning (test of learning and memory). In kind it is in vivo, mouse. The conditions noted are these: chronic treatment of Tcf4+/− mice. An excerpt: The Tcf4+1− mouse model has been developed to mimic PTHS and therefore assess potential treatments. The mice have deficits in hippocampus-dependent learning and memory, spatial working memory, sociability, stereotypy, hyperactivity and daily living paradigms. […] Mice were purchased from The Jackson Laboratory and maintained on a C57BL/6 background. They were raised on a 12:12 light:dark cycle with ad libitum access to food and water. Controls consisted of TCF4+1+. All mice used were heterozygous for the Tcf4 mutation because homozygous mutations result in embryonic/post-partum lethality. There were four treatment groups per compound in the study with 10 male mice used per treatment group (all at 14 weeks of age): Group 1: wild-type littermate mice treated with vehicle (WT+veh); Group 2: Tcf4+/−KO mice treated with vehicle (Tcf4+1−+veh), Group 3: WT+drug; and Group 4: Tcf4+1−+drug. Tcf4+/− mice show reduced freezing in the context of clued fear conditioning test indicating hippocampus-dependent memory and learning deficiency. […] Data were analysed by two-way analysis of variance (ANOVA) followed by post-test comparisons where appropriate using Tukey's Multiple Comparison Test, Data are represented as the mean and standard error of the mean (SEM).

Series [3] has as its system Tcf4+/− mice. As to the kind of experiment: Open field (measure of hyperactivity). The format is in vivo, mouse. The conditions noted are these: chronic treatment of Tcf4+/− mice. An excerpt:
The Tcf4+1− mouse model has been developed to mimic PTHS and therefore assess potential treatments. The mice have deficits in hippocampus-dependent learning and memory, spatial working memory, sociability, stereotypy, hyperactivity and daily living paradigms. […] Mice were purchased from The Jackson Laboratory and maintained on a C57BL/6 background. They were raised on a 12:12 light:dark cycle with ad libitum access to food and water. Controls consisted of TCF4+1+. All mice used were heterozygous for the Tcf4 mutation because homozygous mutations result in embryonic/post-partum lethality. There were four treatment groups per compound in the study with 10 male mice used per treatment group (all at 14 weeks of age): Group 1: wild-type littermate mice treated with vehicle (WT+veh); Group 2: Tcf4+/−KO mice treated with vehicle (Tcf4+1−+veh), Group 3: WT+drug; and Group 4: Tcf4+1−+drug. The open-field apparatus was used to test hyperactivity. […] The number of squares entered by the whole body (locomotor activity) was counted. The movement of the mouse around the field was recorded with a video tracking device for 3 min (version NT4.0, Viewpoint). Data were analysed by two-way analysis of variance (ANOVA) followed by post-test comparisons where appropriate using Tukey's Multiple Comparison Test, Data are represented as the mean and standard error of the mean (SEM).

The test system of series [4] is Tcf4+/− mice. As to the kind of experiment: Nesting (test of daily living). The conditions noted are these: chronic treatment of Tcf4+/− mice. The format is in vivo, mouse. An excerpt: The Tcf4+1− mouse model has been developed to mimic PTHS and therefore assess potential treatments. The mice have deficits in hippocampus-dependent learning and memory, spatial working memory, sociability, stereotypy, hyperactivity and daily living paradigms. […] Mice were purchased from The Jackson Laboratory and maintained on a C57BL/6 background. They were raised on a 12:12 light:dark cycle with ad libitum access to food and water. Controls consisted of TCF4+1+. All mice used were heterozygous for the Tcf4 mutation because homozygous mutations result in embryonic/post-partum lethality. There were four treatment groups per compound in the study with 10 male mice used per treatment group (all at 14 weeks of age): Group 1: wild-type littermate mice treated with vehicle (WT+veh); Group 2: Tcf4+/−KO mice treated with vehicle (Tcf4+1−+veh), Group 3: WT+drug; and Group 4: Tcf4+1−+drug. The test was performed in individual cages. Normal bedding covered the floor to a depth of 0.5 cm. […] Mice were placed individually into the nesting cages 1 hr. before the dark phase, and the results were assessed the next morning. Nest building was scored on a 5 point scale. […] Data were analysed by two-way analysis of variance (ANOVA) followed by post-test comparisons where appropriate using Tukey's Multiple Comparison Test, Data are represented as the mean and standard error of the mean (SEM).

Series [5] relates to Tcf4+/− mice. As to the kind of experiment: Self-grooming (assessment of stereotypy). The format is in vivo, mouse. The conditions noted are these: chronic treatment of Tcf4+/− mice. The text has this: The Tcf4+1− mouse model has been developed to mimic PTHS and therefore assess potential treatments. The mice have deficits in hippocampus-dependent learning and memory, spatial working memory, sociability, stereotypy, hyperactivity and daily living paradigms. […] Mice were purchased from The Jackson Laboratory and maintained on a C57BL/6 background. They were raised on a 12:12 light:dark cycle with ad libitum access to food and water. Controls consisted of TCF4+1+. All mice used were heterozygous for the Tcf4 mutation because homozygous mutations result in embryonic/post-partum lethality. There were four treatment groups per compound in the study with 10 male mice used per treatment group (all at 14 weeks of age): Group 1: wild-type littermate mice treated with vehicle (WT+veh); Group 2: Tcf4+/−KO mice treated with vehicle (Tcf4+1−+veh), Group 3: WT+drug; and Group 4: Tcf4+1−+drug. […] Usually in a sitting position, the mouse will lick its fur, groom with the forepaws, or scratch with any limb. Often the mouse will mix all of these grooming behaviors. […] Data were analysed by two-way analysis of variance (ANOVA) followed by post-test comparisons where appropriate using Tukey's Multiple Comparison Test, Data are represented as the mean and standard error of the mean (SEM).

For series [6], the system named is Tcf4+/− mice. As to the kind of experiment: Sociability/Partition test (assessment of social anxiety). The format is in vivo, mouse. The conditions noted are these: chronic treatment of Tcf4+/− mice. An excerpt: The Tcf4+1- mouse model has been developed to mimic PTHS and therefore assess potential treatments. The mice have deficits in hippocampus-dependent learning and memory, spatial working memory, sociability, stereotypy, hyperactivity and daily living paradigms. […] Mice were purchased from The Jackson Laboratory and maintained on a C57BL/6 background. They were raised on a 12:12 light:dark cycle with ad libitum access to food and water. Controls consisted of TCF4+1+. All mice used were heterozygous for the Tcf4 mutation because homozygous mutations result in embryonic/post-partum lethality. There were four treatment groups per compound in the study with 10 male mice used per treatment group (all at 14 weeks of age): Group 1: wild-type littermate mice treated with vehicle (WT+veh); Group 2: Tcf4+/-KO mice treated with vehicle (Tcf4+1-+veh), Group 3: WT+drug; and Group 4: Tcf4+1-+drug. In the three-chambered sociability task, a subject mouse was evaluated for its exploration of a novel social stimulus (novel mouse). […] The time spent exploring the novel mice was scored as exploration ratio. Data were analysed by two-way analysis of variance (ANOVA) followed by post-test comparisons where appropriate using Tukey's Multiple Comparison Test, Data are represented as the mean and standard error of the mean (SEM).

Series [7] deals with Tcf4+/− mice. As to the kind of experiment: Test of Force (hind limb grip strength). In kind it is in vivo, mouse. The conditions noted are these: chronic treatment of Tcf4+/− mice. An excerpt:
The Tcf4+1− mouse model has been developed to mimic PTHS and therefore assess potential treatments. The mice have deficits in hippocampus-dependent learning and memory, spatial working memory, sociability, stereotypy, hyperactivity and daily living paradigms. […] Mice were purchased from The Jackson Laboratory and maintained on a C57BL/6 background. They were raised on a 12:12 light:dark cycle with ad libitum access to food and water. Controls consisted of TCF4+1+. All mice used were heterozygous for the Tcf4 mutation because homozygous mutations result in embryonic/post-partum lethality. There were four treatment groups per compound in the study with 10 male mice used per treatment group (all at 14 weeks of age): Group 1: wild-type littermate mice treated with vehicle (WT+veh); Group 2: Tcf4+/−KO mice treated with vehicle (Tcf4+1−+veh), Group 3: WT+drug; and Group 4: Tcf4+1−+drug. Tcf4+/− mice show a significant deficit in hindlimb strength (not forelimb) when compared with WT mice. Neuromuscular function of the hindlimbs was tested with a grip strength meter (San Diego Instruments). […] The force applied to the grid at the moment the grasp was released was recorded. Data were analysed by two-way analysis of variance (ANOVA) followed by post-test comparisons where appropriate using Tukey's Multiple Comparison Test, Data are represented as the mean and standard error of the mean (SEM).

Series [8] concerns Tcf4+/− mice. As to the kind of experiment: Dose response experiments in behavioural tests (Study 2). The format is in vivo, mouse. Here is the method:
Dose response experiments were conducted following the protocol described above. Amitriptyline rescued all the behavioral tests at 5 and 10 mg/kg.

Entries after “also recorded” stand apart in the source; their conditions may differ. Counter-ions that a name gives are not always drawn.

Take `CN(C)CCC=C1c2ccccc2CCc2ccccc21` [amitriptyline HCL, 3-(10,11-dihydro-5H-dibenzo [ad]cycloheptene-5-ylidene)-N,N-dimethyl-1-propanamine hydrochloride]: the solubility in water entry in series [1] is recorded as “freely soluble”.

Turning to `CN(C)CCC=C1c2ccccc2CCc2ccccc21` [amitriptyline], the “fear conditioning (learning and memory)” value with Tcf4+/− mice [2] is “significantly improved; also recorded: rescuing”. The “open field (hyperactivity)” value with Tcf4+/− mice [3] is “significantly improved; also recorded: rescuing”. In the series with Tcf4+/− mice [4], the “nesting (tests of daily living)” value was “significantly improved; also recorded: rescuing”. For the same molecule, the “self-grooming (stereotypy)” value in the series with Tcf4+/− mice [5] is “significantly improved; also recorded: rescuing”. Besides, in the series with Tcf4+/− mice [6], the “sociability (social anxiety)” value is on record as “significantly improved; also recorded: rescuing”. Also, the “test of force (strength)” value with Tcf4+/− mice [7] is “significantly improved; also recorded: rescuing”. For the same molecule, the “all the behavioral tests (dose response)” value in the series on Tcf4+/− mice [8] (5 mg/kg) and with Tcf4+/− mice [8] (10 mg/kg) was “rescued” each time.

The record behind these values is US20220133651A1, “TREATMENT OF PITT-HOPKINS SYNDROME” (HEALX LTD, priority 2019, published 2022).
